Primed or numbered codes have the meaning given here. Where no end group is shown, it is not given here. The star is where a group is joined. 5FAM = O=C1OC2(c3ccc(O)cc3Oc3cc(O)ccc32)c2ccc(C(=O)*)cc21; K(CPQ2) = lysine carrying the CPQ2 quencher; FAM = fluorescent reporter; PEG2′ = not defined here
Tests used:
[1] = tested on: proteases in plasma sensed by Probe #102 (cathepsin L); test: Inhibitor profiling of Probe #102 cleavage in NASH and healthy plasma; type: biochemical, mice; details: for effect of inhibitor on signal for NASH or healthy samples: Probe #102
Description: For this experiment, all plasma samples were prepared individually and diluted 1/10e in PBS with inhibitor added directly to the samples. Inhibitor was prepared at 15× concentration to final. Substrates were diluted in DI water at 18 uM, such that the final concentration on the plate would be 6 uM. All samples were prepared such that their last dilution on the plate would not affect the desired final concentration. 10 ul of each individual sample was pipetted into their corresponding wells, and the plate was then spun down in the centrifuge at 1500 RPM for 30 seconds to coat the bottom of each well with the sample. 5 ul of the 18 uM substrate solution was pipetted into each well being used on a 384 well plate, and then the plate was spun down in the centrifuge at 1500 rpm for 30 seconds. The plate was placed immediately in the plate reader at 37° C. for a 30-minute-long fluorescence kinetic read at 485/535 extended gain.
To assess the proteolytic cleavage pattern of Probe #102, samples were tested using a pool of broad inhibitors for serine, cysteine, threonine, MMP and aspartic protease family members (broad inhibitor) to assess general protease activity, AEBSF for serine proteases, E64 for cysteine proteases, CTSi for broad cathepsin inhibition of cathepsins L,S,K and B, or specific inhibitors for cathepsin K (L00625), for cathepsin L (SID) or cathepsin B (CA074).

[2] = cited from earlier work
[3] = tested on: carboxylesterase 1, phospholipase A2 and lipoprotein lipase; test: Spiked recombinant enzymes in human plasma with resorufin oleate as substrate; type: biochemical
[4] = tested on: caspase activity in hepatitis; test: Ex vivo FRET probe cleavage in plasma of Jo2 fulminant hepatitis mice; type: biochemical; details: plasma 3 hours after Jo2 injection
Description: Fulminant hepatitis is induced after injection intraperitoneal of monoclonal antibody anti-CD95 (Jo2, BD biosciences, 4 ug/animal), and mouse plasma samples were collected 3 hours after Jo2 injection.

COVID-related proteases [5] = test: Ex vivo FRET probe cleavage in COVID vs healthy K2EDTA and Lithium Heparin plasma; type: biochemical; details: K2EDTA and Lithium Heparin plasma sets
[6] = tested on: cathepsin and/or MMP protease activities; test: Ex vivo FRET probe cleavage in plasma: NASH progression, regression, healthy mice; type: biochemical; details: K2EDTA plasma at 20 weeks
From the text: Plasma samples were collected from all animals at 20 weeks.
The probes showing the most differentiation in NASH were linked to cathepsin and/or MMP protease activities.

NASH-related proteases = test: Ex vivo FRET probe cleavage in K2EDTA plasma of NASH (CDAHFD) vs healthy (CD) mice; type: biochemical; details: n=10 and pooled
Description: All animals were used in accordance with animal care guidelines. Plasma was obtained from these blood samples by centrifugation at 3,500 RPM for 20 min at 4° C. The plasma was stored at −80° C. until it was needed for experimental purposes.
Samples were mixed with protease substrates and quenchers/reporters in 96-well plates. The 96-well plates were read on a Biotech Synergy H1, using 465,535 excitation/emission settings.
A single plasma sample was contacted with the probes for each predetermined protease to provide a multiplex assessment of protease activity in the sample.

COVID-related proteases [7] = test: Ex vivo FRET probe cleavage in COVID positive vs negative swab samples; type: biochemical
Granzyme B = target: T1, Granzyme B (Homo sapiens, UniProt P10144); test: Inhibition experiments on Probe #647 signal in COVID swab samples; type: biochemical; details: healthy vs COVID samples, FIG. 39
T1 construct: from tissue; host or cells: COVID swab samples
T1 sequence (P10144 21-247): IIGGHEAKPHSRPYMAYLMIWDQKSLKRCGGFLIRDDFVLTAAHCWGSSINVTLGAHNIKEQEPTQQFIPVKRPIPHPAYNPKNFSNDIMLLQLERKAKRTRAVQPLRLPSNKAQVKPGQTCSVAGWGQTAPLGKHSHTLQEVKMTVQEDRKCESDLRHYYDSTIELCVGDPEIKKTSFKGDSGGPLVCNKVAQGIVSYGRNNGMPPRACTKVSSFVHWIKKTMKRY

## NCCc1ccc(S(=O)(=O)F)cc1 [AEBSF]
[1]; NASH plasma diluted 1/10 in PBS, Probe #102 6 uM
  decrease of RFU signal by inhibitor, NASH: 65%
[1]; healthy plasma diluted 1/10 in PBS, Probe #102 6 uM
  decrease of RFU signal by inhibitor, healthy: 60%

## CCCNC(=O)[C@H]1O[C@@H]1C(=O)N[C@H](C(=O)N1CCC[C@H]1C(=O)O)[C@@H](C)CC [CA074]
[1]
  effect of inhibitor on signal for NASH or healthy samples: did not significantly decrease signal

## O=c1[nH]c(-c2ccccc2O)nc2ccccc12 [HPQ, 2-(2″-hydroxyphenyl)-4(3H)-quinazolinone]
[2]
  solubility in water: strictly insoluble in water

## CC(C)C[C@H](NC(=O)[C@H]1O[C@@H]1C(=O)O)C(=O)NCCCCN=C(N)N [Probe E64, E64]
[1]
  effect of inhibitor on signal for NASH or healthy samples: decreased NASH signal significantly

## CN1CCN(c2nc(-c3ccc(C(=O)NC4(C(=O)NCC#N)CCCCC4)cc3)cs2)CC1 [Probe L006235]
[1]
  effect of inhibitor on signal for NASH or healthy samples: did not significantly decrease signal

## CCCC(=O)O [butyrate]
[3]
  suitability as substrate for enzyme detection: promising for detection of broad range of enzymes

## Probe #8: Caspase centric probe (GVDVADGK; not fully specified; 5-FAM, CPQ2 quencher, PEG2, D-Lys-D-Lys-GC)
[4]
  differentiation between healthy and Jo2 samples: show contrast that is specific and sensitive to the Jo2 model

## Probe #12: Caspase centric probe (GDEVDGK; not fully specified; 5-FAM, CPQ2 quencher, PEG2, D-Lys-D-Lys-GC)
[4]
  differentiation between healthy and Jo2 samples: show contrast that is specific and sensitive to the Jo2 model

## Probe #18: a Neutrophil elastase substrate (GAAPVGK; also: 5-FAM, CPQ2 quencher, PEG2-kk-GC, places not given here)
COVID-related proteases [5]
  differential cleavage between COVID and healthy samples: demonstrated contrast in both sets

## Probe #84: a Furin substrate (GRVKRGLAGK; also: 5-FAM, CPQ2 quencher, PEG2-kk-GC, places not given here)
COVID-related proteases [5]
  differential cleavage between COVID and healthy samples: demonstrated contrast in both sets

## Probe #96: FRET peptide probe of Table 1 ({FAM}-GRPLALWESQG-{K(CPQ2)-PEG2′-dK-Gly-Cys})
[6]
  differentiation among healthy, regression and NASH samples: can differentiate

## Probe #102: a CTSL sensing probe; FRET peptide probe with fluorescent reporter and quencher ({FAM}-GKPILFFRLKG-{K(CPQ2)-PEG2′-dK-dK-Gly-Cys})
NASH-related proteases
  attribution of measured rate of fluorescence increase: can be ascribed to protease activity and to NASH disease
[6]
  differentiation among healthy, regression and NASH samples: can differentiate
[1]; from inhibitor experiments, FIG. 30
  protease to whose activity the probe responds: specifically responds to the activity of cathepsin L (CTSL)

## Probe #428: FRET peptide probe of Table 1 ({FAM}-GDRRKKLTQG-{K(CPQ2)-PEG2′-dK-dK-Gly-Cys})
[6]
  differentiation among healthy, regression and NASH samples: can differentiate

## Probe #462: a MMP8 substrate (GKKAKRNALG; also: FAM, K(CPQ2), PEG2, D-Lys-D-Lys-GC, places not given here)
COVID-related proteases [5]
  differential cleavage between COVID and healthy samples: demonstrated contrast in both sets

## Probe #492: FRET peptide probe of Table 1 ({FAM}-GQRANSIRVTWG-{K(CPQ2)-PEG2′-dK-dK-Gly-Cys})
NASH-related proteases
  attribution of measured rate of fluorescence increase: can be ascribed to protease activity and to NASH disease
[6]
  differentiation among healthy, regression and NASH samples: can differentiate

## Probe #520: FRET peptide probe of Table 1 (5FAM-GKPISLISSG-{K(CPQ2)-PEG2′-Gly-Cys})
[6]
  differentiation among healthy, regression and NASH samples: can differentiate

## Probe #647: Caspase centric probe; signal measures the activity of protease Granzyme B (GAIEPDSGG; also: 5FAM, Lys(CPQ2), PEG2, D-Lys-D-Lys, GC-NH2, places not given here)
[6]
  differentiation among healthy, regression and NASH samples: can differentiate
[4]
  differentiation between healthy and Jo2 samples: show contrast that is specific and sensitive to the Jo2 model
COVID-related proteases [7]; adjusted RFU across timepoints
  number of active samples, COVID+: 7 samples
  number of active samples, COVID-: 1 samples
COVID-related proteases [7]; swabs in saline
  differentiation between COVID+ and COVID- samples: key differentiator
Granzyme B
  protease whose activity the probe signal measures: measures the activity of protease Granzyme B

## resorufin oleate
[3]
  suitability as substrate for enzyme detection: promising for detection of broad range of enzymes
